Measurements published in US8846710B2, “Method of preferentially inducing the biosynthesis of interferon” (3M Innovative Properties Company, priority 2005, dated 2014).

Assays:
[1] = system: tumor necrosis factor (α) (TNF-α); experiment: Cytokine induction in human cells: TNF-α secreted by PBMC into culture media (ORIGEN M-Series immunoassay); type: cell-based; set-up: key to Maximal Response (pg/mL) TNF / Maximal Response TNF: If any negative values result from background subtraction, the reading is reported as “*”, and is noted as not reliably detectable; conditions: for Maximal Response TNF / minimal effective concentration / Minimum Effective Concentration TNF: human PBMC; for Maximal Response TNF / Maximal Response (pg/mL) TNF: median; for minimal effective concentration / Maximal Response (pg/mL) TNF: Table 10; for minimal effective concentration: lowest tested concentration inducing TNF-α over usually 40 pg/mL, median where more than one experiment, read-out: Minimum Effective Concentration (μM) TNF; for Minimum Effective Concentration TNF: median where tested in more than one experiment; for Maximal Response (pg/mL) TNF: maximal response in dose response curve, * = below experimental background level
In short: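 Secreted TNF-α (pg/mL) was quantified by ORIGEN M-Series immunoassay after 18 to 24 hours culture at 37° C of human PBMC (2×10^6 cells/mL final) with test compound (usually 30-0.014 μM, 3-fold series, DMSO ≤1%). Values were corrected for DMSO or experimental background and a reference-compound ratio, giving a minimum effective concentration.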

[2] = system: interferon (α) (IFN-α); experiment: Cytokine induction in human cells: IFN-α secreted by PBMC into culture media (ELISA); type: cell-based; conditions: for Maximal Response IFN / minimal effective concentration / Minimum Effective Concentration IFN: human PBMC; for Maximal Response IFN / Minimum Effective Concentration IFN: median where tested in more than one experiment; for minimal effective concentration / Maximal Response (pg/mL) IFN: Table 10; for minimal effective concentration: lowest tested concentration inducing IFN-α over usually 20 pg/mL, median where more than one experiment, read-out: Minimum Effective Concentration (μM) IFN; for Maximal Response (pg/mL) IFN: maximal response in dose response curve, * = below experimental background level, median
In short: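 IFN-α secreted by density-gradient-isolated PBMC (final 2×10^6 cells/mL) was quantified by ELISA after 18–24 h compound exposure at 37 °C, typically 30-0.014 μM in 3-fold steps with ≤1% DMSO. Readings corrected for background and reference-compound variability; lowest concentration above usually 20 pg/mL reported, plus maximal response (pg/mL).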

[3] = Table 12, * = below the experimental background of 40 pg/mL
[4] = Table 11, * = TNF below experimental background of 40 pg/mL

CC(C)(Cn1c(CO)nc2c(N)nc3cccnc3c21)NC(=O)C1CCCCC1 [Example 143, N-[2-(4-Amino-2-hydroxymethyl-1H-imidazo[4,5-c][1,5]naphthyridin-1-yl)-1,1-dimethylethyl]cyclohexanecarboxamide]
Maximal Response TNF [1, 3]: 798 pg/mL | Maximal Response IFN ([2]; Table 12): 1467 pg/mL

CCCC(=O)NCCCCn1c(CO)nc2c(N)nc3cc(-c4cccnc4)ccc3c21 [Example 196]
minimal effective concentration [1]: > 30 µM | minimal effective concentration [2]: 0.12 µM

CC(C)(CNC(=O)Nc1ccccc1)Cn1c(CCO)nc2c(N)nc3ccccc3c21 [Example 130]
Minimum Effective Concentration TNF ([1]; Table 11): 3.33 µM | Maximal Response TNF [1, 4]: 2001 pg/mL | Maximal Response IFN ([2]; Table 11): 8361 pg/mL | Minimum Effective Concentration IFN ([2]; Table 11): 0.014 µM

CCOCc1nc2c(N)nc3ccccc3c2n1CCCNC(=O)N1CCOCC1 [Analog 88]
Minimum Effective Concentration TNF ([1]; Table 11): 1.11 µM | Maximal Response TNF [1, 4]: 1379 pg/mL | Maximal Response IFN ([2]; Table 11): 6670 pg/mL | Minimum Effective Concentration IFN ([2]; Table 11): 0.12 µM

CC(C)(Cn1c(CO)nc2c(N)nc3ccccc3c21)NC(=O)C1CCCCC1 [Example 5, N-[2-(4-Amino-2-hydroxymethyl-1H-imidazo[4,5-c]quinolin-1-yl)-1,1-dimethylethyl]cyclohexanecarboxamide]
Maximal Response TNF [1, 4]: 1130 pg/mL | Maximal Response IFN ([2]; Table 11): 17274 pg/mL

COCCc1nc2c(N)nc3ccccc3c2n1CCNS(C)(=O)=O [Analog 72]
Minimum Effective Concentration TNF ([1]; Table 11): 0.04 µM | Maximal Response TNF [1, 4]: 8547 pg/mL | Maximal Response IFN ([2]; Table 11): 5858 pg/mL | Minimum Effective Concentration IFN ([2]; Table 11): 0.014 µM

NCCCCn1c(CCO)nc2c(N)nc3ccccc3c21 [Example 114]
Minimum Effective Concentration TNF ([1]; Table 11): >30 µM | Maximal Response TNF [1, 4]: * | Maximal Response IFN ([2]; Table 11): 23 pg/mL | Minimum Effective Concentration IFN ([2]; Table 11): 30 µM

CCCNC(=O)NCCCCn1c(CO)nc2c(N)nc3cc(-c4cccnc4)ccc3c21 [Example 195]
Maximal Response (pg/mL) TNF [1]: 81 pg/mL | Maximal Response (pg/mL) IFN [2]: 5089 pg/mL

CN(CCOCCn1c(CCO)nc2c(N)nc3ccccc3c21)C(=O)c1ccccc1 [Example 134]
Minimum Effective Concentration TNF ([1]; Table 11): 30 µM | Maximal Response TNF [1, 4]: 315 pg/mL | Maximal Response IFN ([2]; Table 11): 8361 pg/mL | Minimum Effective Concentration IFN ([2]; Table 11): 3.33 µM

CCc1nc2c(N)nc3cccnc3c2n1CC(C)(C)O [Analog 127, 1-(4-amino-2-ethyl-1H-imidazo[4,5-c][1,5]naphthyridin-1-yl)-2-methylpropan-2-ol]
Maximal Response TNF [1, 3]: 3863 pg/mL | Maximal Response IFN ([2]; Table 12): 2150 pg/mL

Cc1nc2c(N)nc3ccccc3c2n1CC(C)(C)CNS(C)(=O)=O [Analog 63]
Minimum Effective Concentration TNF ([1]; Table 11): 10 µM | Maximal Response TNF [1, 4]: 805 pg/mL | Maximal Response IFN ([2]; Table 11): 1019 pg/mL | Minimum Effective Concentration IFN ([2]; Table 11): 0.37 µM

COCCc1nc2c(N)nc3ccccc3c2n1CCOCCN(C)C(=O)c1ccccc1 [Analog 120]
Minimum Effective Concentration TNF ([1]; Table 11): 0.37 µM | Maximal Response TNF [1, 4]: 3317 pg/mL | Maximal Response IFN ([2]; Table 11): 1394 pg/mL | Minimum Effective Concentration IFN ([2]; Table 11): 0.04 µM

CC(C)(Cn1c(CO)nc2c(N)nc3cccnc3c21)NS(C)(=O)=O [Example 144, N-[2-(4-Amino-2-hydroxymethyl-1H-imidazo[4,5-c][1,5]naphthyridin-1-yl)-1,1-dimethylethyl]methanesulfonamide]
Maximal Response TNF [1, 3]: 170 pg/mL | Maximal Response IFN ([2]; Table 12): 1914 pg/mL

CCc1nc2c(N)nc3ccccc3c2n1CC(C)(C)CNS(C)(=O)=O [Analog 64]
Minimum Effective Concentration TNF ([1]; Table 11): 3.33 µM | Maximal Response TNF [1, 4]: 1453 pg/mL | Maximal Response IFN ([2]; Table 11): 1431 pg/mL | Minimum Effective Concentration IFN ([2]; Table 11): 0.12 µM

COCCc1nc2c(N)nc3ccccc3c2n1CCCCCCCCNC(=O)c1ccccc1 [Analog 119]
Minimum Effective Concentration TNF ([1]; Table 11): 0.014 µM | Maximal Response TNF [1, 4]: 1995 pg/mL | Maximal Response IFN ([2]; Table 11): 1584 pg/mL | Minimum Effective Concentration IFN ([2]; Table 11): 0.014 µM

CCOCc1nc2c(N)nc3cccnc3c2n1CC(C)(C)NC(=O)C1CCCCC1 [Analog 129, N-[2-(4-amino-2-ethoxymethyl-1H-imidazo[4,5-c][1,5]naphthyridin-1-yl)-1,1-dimethylethyl]cyclohexanecarboxamide]
Maximal Response TNF [1, 3]: 8691 pg/mL | Maximal Response IFN ([2]; Table 12): 1647 pg/mL

Nc1nc2ccccc2c2c1nc(CCO)n2CCCCCCCCNC(=O)c1ccccc1 [Example 121]
Minimum Effective Concentration TNF ([1]; Table 11): 3.33 µM | Maximal Response TNF [1, 4]: 180 pg/mL | Maximal Response IFN ([2]; Table 11): 2441 pg/mL | Minimum Effective Concentration IFN ([2]; Table 11): 0.37 µM

CCCCNC(=O)NCCCn1c(CCO)nc2c(N)nc3ccccc3c21 [Example 126]
Minimum Effective Concentration TNF ([1]; Table 11): >30 µM | Maximal Response TNF [1, 4]: * | Maximal Response IFN ([2]; Table 11): 8361 pg/mL | Minimum Effective Concentration IFN ([2]; Table 11): 1.11 µM

COCCc1nc2c(N)nc3cc(-c4cccnc4)ccc3c2n1CCCN1CCCC1=O [Analog 39]
minimal effective concentration [1]: 1.11 µM | Maximal Response (pg/mL) TNF [1]: 380 pg/mL | minimal effective concentration [2]: 0.12 µM | Maximal Response (pg/mL) IFN [2]: 753 pg/mL

CCCc1nc2c(N)nc3ccccc3c2n1CCCNC(=O)NC(C)C [Analog 82]
Minimum Effective Concentration TNF ([1]; Table 11): 1.11 µM | Maximal Response TNF [1, 4]: 3740 pg/mL | Maximal Response IFN ([2]; Table 11): 6571 pg/mL | Minimum Effective Concentration IFN ([2]; Table 11): 0.12 µM

CC(C)(CN)Cn1c(CCO)nc2c(N)nc3ccccc3c21 [Example 129]
Minimum Effective Concentration TNF ([1]; Table 11): 30 µM | Maximal Response TNF [1, 4]: 85 pg/mL | Maximal Response IFN ([2]; Table 11): 2702 pg/mL | Minimum Effective Concentration IFN ([2]; Table 11): 0.37 µM

COCCc1nc2c(N)nc3ccccc3c2n1CCCCNS(C)(=O)=O [Analog 52]
Minimum Effective Concentration TNF ([1]; Table 11): 0.37 µM | Maximal Response TNF [1, 4]: 1931 pg/mL | Maximal Response IFN ([2]; Table 11): 7594 pg/mL | Minimum Effective Concentration IFN ([2]; Table 11): 0.014 µM

COCCc1nc2c(N)nc3ccccc3c2n1CCCCCCCCNS(C)(=O)=O [Analog 118]
Minimum Effective Concentration TNF ([1]; Table 11): 0.014 µM | Maximal Response TNF [1, 4]: 1853 pg/mL | Maximal Response IFN ([2]; Table 11): 1914 pg/mL | Minimum Effective Concentration IFN ([2]; Table 11): 0.014 µM

COCCc1nc2c(N)nc3ccccc3c2n1CCNC(=O)CC(C)C [Analog 106]
Minimum Effective Concentration TNF ([1]; Table 11): 3.33 µM | Maximal Response TNF [1, 4]: 5694 pg/mL | Maximal Response IFN ([2]; Table 11): 1204 pg/mL | Minimum Effective Concentration IFN ([2]; Table 11): 0.12 µM

COCCc1nc2c(N)nc3cc(-c4ccncc4)ccc3c2n1CCCN1CCCC1=O [Analog 40]
minimal effective concentration [1]: 3.33 µM | Maximal Response (pg/mL) TNF [1]: 943 pg/mL | minimal effective concentration [2]: 0.37 µM | Maximal Response (pg/mL) IFN [2]: 1179 pg/mL

CC(C)NC(=O)NCCCn1c(CCO)nc2c(N)nc3ccccc3c21 [Example 99]
Minimum Effective Concentration TNF ([1]; Table 11): >30 µM | Maximal Response TNF [1, 4]: * | Maximal Response IFN ([2]; Table 11): 21829 pg/mL | Minimum Effective Concentration IFN ([2]; Table 11): 0.37 µM

CCc1nc2c(N)nc3ccccc3c2n1CCNS(C)(=O)=O [Analog 69]
Minimum Effective Concentration TNF ([1]; Table 11): 10 µM | Maximal Response TNF [1, 4]: 820 pg/mL | Maximal Response IFN ([2]; Table 11): 1610 pg/mL | Minimum Effective Concentration IFN ([2]; Table 11): 0.12 µM

Cc1nc2c(N)nc3ccccc3c2n1CCCN [Analog 84]
Minimum Effective Concentration TNF ([1]; Table 11): >30 µM | Maximal Response TNF [1, 4]: * | Maximal Response IFN ([2]; Table 11): 421 pg/mL | Minimum Effective Concentration IFN ([2]; Table 11): 3.33 µM

CS(=O)(=O)NCCn1c(CCO)nc2c(N)nc3cccnc3c21 [Example 147, N-{2-[4-Amino-2-(2-hydroxyethyl)-1H-imidazo[4,5-c][1,5]naphthyridin-1-yl]ethyl}methanesulfonamide]
Maximal Response TNF [1, 3]: * | Maximal Response IFN ([2]; Table 12): 49 pg/mL

CCOCc1nc2c(N)nc3ccccc3c2n1CC(C)(C)CNC(=O)Nc1ccccc1 [Analog 91]
Minimum Effective Concentration TNF ([1]; Table 11): 0.04 µM | Maximal Response TNF [1, 4]: 3618 pg/mL | Maximal Response IFN ([2]; Table 11): 1133 pg/mL | Minimum Effective Concentration IFN ([2]; Table 11): 0.014 µM

COCCc1nc2c(N)nc3ccccc3c2n1CCCCNC(=O)c1nccc2ccccc12 [Analog 112]
Minimum Effective Concentration TNF ([1]; Table 11): 0.04 µM | Maximal Response TNF [1, 4]: 1462 pg/mL | Maximal Response IFN ([2]; Table 11): 2127 pg/mL | Minimum Effective Concentration IFN ([2]; Table 11): 0.014 µM

CCCNC(=O)NCCCCn1c(COCC)nc2c(N)nc3cc(-c4cccnc4)ccc3c21 [Analog 29]
minimal effective concentration [1]: 1.11 µM | Maximal Response (pg/mL) TNF [1]: 1059 pg/mL | minimal effective concentration [2]: 0.04 µM | Maximal Response (pg/mL) IFN [2]: 936 pg/mL

CCc1nc2c(N)nc3ccccc3c2n1CC(C)(C)CNC(=O)Nc1ccccc1 [Analog 90]
Minimum Effective Concentration TNF ([1]; Table 11): 0.12 µM | Maximal Response TNF [1, 4]: 2098 pg/mL | Maximal Response IFN ([2]; Table 11): 922 pg/mL | Minimum Effective Concentration IFN ([2]; Table 11): 0.014 µM

COCCc1nc2c(N)nc3ccccc3c2n1CC(C)(C)CNS(C)(=O)=O [Analog 67]
Minimum Effective Concentration TNF ([1]; Table 11): 0.04 µM | Maximal Response TNF [1, 4]: 5467 pg/mL | Maximal Response IFN ([2]; Table 11): 1805 pg/mL | Minimum Effective Concentration IFN ([2]; Table 11): 0.014 µM
